# Measured values: ChEMBL document CHEMBL3259695 (J Med Chem, 2014)
# pIC50, pKi: −log10 of the molar value.
# Legend:
# [1] = Displacement of [3H]SCH 23390 from dopamine D1-like receptor in Sprague-Dawley rat caudate putamen after 90 mins; assay type: tissue-based
# D(3) dopamine receptor [2] = molecular target: T1, D(3) dopamine receptor (Homo sapiens, UniProt P35462); settings: U2OS
# D(2) dopamine receptor [3] = molecular target: D(2) dopamine receptor (Rattus norvegicus, UniProt P61169); assay: Displacement of [3H]Spiperone from dopamine D2-like receptor in Sprague-Dawley rat caudate putamen after 90 mins; assay type: tissue-based
# Sequence of D(2) dopamine receptor (Rattus norvegicus, UniProt P61169) (P61169 whole entry): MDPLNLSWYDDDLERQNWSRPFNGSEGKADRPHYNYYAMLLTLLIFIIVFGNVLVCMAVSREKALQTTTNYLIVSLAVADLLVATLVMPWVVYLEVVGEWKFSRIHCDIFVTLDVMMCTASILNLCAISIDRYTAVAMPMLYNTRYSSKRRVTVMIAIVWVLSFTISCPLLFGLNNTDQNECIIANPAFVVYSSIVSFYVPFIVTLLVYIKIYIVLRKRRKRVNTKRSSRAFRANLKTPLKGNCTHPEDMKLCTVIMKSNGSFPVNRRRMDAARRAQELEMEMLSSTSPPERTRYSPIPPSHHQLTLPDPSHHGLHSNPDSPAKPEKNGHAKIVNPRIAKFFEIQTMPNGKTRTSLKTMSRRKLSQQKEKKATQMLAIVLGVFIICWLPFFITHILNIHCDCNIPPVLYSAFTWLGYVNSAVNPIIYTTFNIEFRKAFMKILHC
# Rattus norvegicus [4] = organism: Rattus norvegicus; assay: Selectivity ratio of Ki for dopamine D1-like receptor in Sprague-Dawley rat caudate putamen to Ki for dopamine D3 receptor in Sprague-Dawley rat ventral striatum; assay type: tissue-based
# D(3) dopamine receptor [5] = molecular target: D(3) dopamine receptor (Rattus norvegicus, UniProt P19020); assay: Displacement of [3H]R-(+)-7-OHDPAT from dopamine D3 receptor in Sprague-Dawley rat ventral striatum after 90 mins
# Sequence of D(3) dopamine receptor (Rattus norvegicus, UniProt P19020) (P19020 whole entry): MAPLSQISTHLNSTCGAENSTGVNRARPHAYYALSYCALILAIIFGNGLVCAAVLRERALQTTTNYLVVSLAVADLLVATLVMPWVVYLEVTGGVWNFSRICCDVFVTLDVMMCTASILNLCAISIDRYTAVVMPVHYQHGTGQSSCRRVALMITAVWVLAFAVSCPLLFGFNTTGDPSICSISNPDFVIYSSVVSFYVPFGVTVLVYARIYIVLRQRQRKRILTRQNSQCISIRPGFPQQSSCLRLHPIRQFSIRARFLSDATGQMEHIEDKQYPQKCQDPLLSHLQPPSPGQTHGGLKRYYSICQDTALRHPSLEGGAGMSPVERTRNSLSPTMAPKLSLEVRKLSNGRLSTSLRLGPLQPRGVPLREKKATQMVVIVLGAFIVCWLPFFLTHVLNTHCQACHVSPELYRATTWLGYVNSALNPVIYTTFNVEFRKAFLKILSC
# D(3) dopamine receptor [6] = molecular target: T1, D(3) dopamine receptor
# D(3) dopamine receptor [7] = molecular target: T1, D(3) dopamine receptor; assay: Displacement of [3H]N-methylspiperone from human dopamine D3 receptor expressed in HEK293 cells after 1 hr by liquid scintillation counting analysis; assay type: cell-based
# D(2) dopamine receptor [8] = molecular target: D(2) dopamine receptor (Homo sapiens, UniProt P14416); assay: Displacement of [3H]N-methylspiperone from human dopamine D2 receptor expressed in HEK293 cells after 1 hr by liquid scintillation counting analysis; assay type: cell-based
# Sequence of D(2) dopamine receptor (Homo sapiens, UniProt P14416) (P14416 whole entry): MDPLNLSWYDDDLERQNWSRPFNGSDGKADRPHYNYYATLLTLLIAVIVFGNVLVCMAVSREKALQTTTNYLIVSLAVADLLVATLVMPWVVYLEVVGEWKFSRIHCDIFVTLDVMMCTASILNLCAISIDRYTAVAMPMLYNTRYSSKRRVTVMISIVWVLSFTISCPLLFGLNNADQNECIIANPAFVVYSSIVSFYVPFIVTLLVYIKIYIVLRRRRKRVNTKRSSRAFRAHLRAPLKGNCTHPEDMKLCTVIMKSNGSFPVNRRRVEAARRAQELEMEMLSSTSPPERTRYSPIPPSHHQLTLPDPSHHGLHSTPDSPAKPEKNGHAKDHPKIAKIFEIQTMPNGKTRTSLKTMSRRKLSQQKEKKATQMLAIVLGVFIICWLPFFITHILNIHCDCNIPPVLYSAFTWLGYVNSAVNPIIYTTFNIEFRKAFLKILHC
# Rattus norvegicus [9] = organism: Rattus norvegicus; assay: Selectivity ratio of Ki for dopamine D2-like receptor in Sprague-Dawley rat caudate putamen to Ki for dopamine D3 receptor in Sprague-Dawley rat ventral striatum; assay type: tissue-based
# T1 sequence (P35462 whole entry): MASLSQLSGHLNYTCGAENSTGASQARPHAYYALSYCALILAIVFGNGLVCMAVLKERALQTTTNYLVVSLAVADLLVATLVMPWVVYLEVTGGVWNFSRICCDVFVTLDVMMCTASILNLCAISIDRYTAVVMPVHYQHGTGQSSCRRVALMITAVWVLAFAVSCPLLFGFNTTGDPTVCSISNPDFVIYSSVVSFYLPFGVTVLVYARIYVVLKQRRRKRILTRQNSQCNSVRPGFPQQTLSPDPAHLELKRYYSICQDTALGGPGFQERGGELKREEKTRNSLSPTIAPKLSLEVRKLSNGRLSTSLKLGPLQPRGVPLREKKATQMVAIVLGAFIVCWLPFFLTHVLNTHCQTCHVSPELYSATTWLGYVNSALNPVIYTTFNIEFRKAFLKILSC
Compound,pKi [1],pKi (D(2) dopamine receptor [3]),Ratio Ki (Rattus norvegicus [4]),pKi (D(3) dopamine receptor [5]),Ratio Ki (Rattus norvegicus [9]),other results
CCCN(CC[C@]1(O)C[C@@H](NC(=O)c2ccc3ccccc3c2)C1)C1CC1c1ccc(Cl)cc1 (mixture of isomers),5.66,–,–,–,–,–
CCCN[C@H]1CCc2nc(N)sc2C1,–,–,–,–,–,ED50 (D(3) dopamine receptor [2]): 3.7 nM
CCCN(CC[C@]1(O)C[C@@H](NC(=O)c2ccc3ccccc3c2)C1)[C@H]1C[C@@H]1c1cccc(Cl)c1 (racemic),5.74,< 3.52,64,–,–,–
CCCN(CC[C@]1(O)C[C@@H](NC(=O)c2ccc3ccccc3c2)C1)[C@@H]1C[C@H]1c1ccc(Cl)cc1,4.59,< 3.52,–,8.57,–,pIC50 (D(3) dopamine receptor [6]): 6.49; ED50 (D(3) dopamine receptor [2]): > 100000 nM; pKi (D(3) dopamine receptor [7]): 8.55; pKi (D(2) dopamine receptor [8]): 6.21
CCCN[C@H]1C[C@@H]1c1ccccc1,3.91,4.02,105,5.93,82,–
CCCN(CC[C@]1(O)C[C@@H](NC(=O)c2ccc3ccccc3c2)C1)[C@H]1C[C@@H]1c1ccccc1,5.51,5.67,29,6.97,20,–
CCCN(CC[C@]1(O)C[C@@H](NC(=O)c2ccc3ccccc3c2)C1)[C@H]1C[C@@H]1c1ccccc1Cl (racemic),6.13,–,39,–,26,–
CCCN(CC[C@]1(O)C[C@@H](NC(=O)c2ccc3ccccc3c2)C1)[C@@H]1C[C@H]1c1ccccc1,5.55,5.88,64,7.36,30,–
Cc1ncoc1-c1nnc(SCCCN2CC3CC3(c3ccc(C(F)(F)F)cc3F)C2)n1C (stereo not drawn),4.41,–,–,7.34,–,–
CCCN(CC[C@]1(O)C[C@@H](NC(=O)c2ccc3ccccc3c2)C1)[C@H]1C[C@@H]1c1ccc(Cl)cc1,4.69,< 4.00,–,6.34,–,–
CCCN[C@@H]1C[C@H]1c1ccccc1,4.04,4.01,76,5.92,81,–
N[C@@H]1C[C@H]1c1ccccc1.N[C@H]1C[C@@H]1c1ccccc1 (racemic) [TRANYLCYPROMINE],–,4.23,–,–,–,–
CCN1CCC[C@H]1CNC(=O)c1c(O)c(Cl)cc(Cl)c1OC [RACLOPRIDE],–,–,–,–,–,pKi (D(3) dopamine receptor [7]): 7.87
CCc1cc(Cl)c(OC)c(C(=O)NC[C@@H]2CCCN2CC)c1O [ETICLOPRIDE],–,–,–,–,–,pKi (D(2) dopamine receptor [8]): 10.07
